From US20110237659A1, “CHROMENONE DERIVATIVES AS TRPV3 ANTAGONISTS” (GLENMARK PHARMACEUTICALS S.A., priority 2008, published 2011)

Biological target: T1, Human TRPV3 (Homo sapiens, UniProt Q8NET8)
T1 construct: expressed in transfected cells; host or cells: CHO cells
T1 sequence (Q8NET8 1-790): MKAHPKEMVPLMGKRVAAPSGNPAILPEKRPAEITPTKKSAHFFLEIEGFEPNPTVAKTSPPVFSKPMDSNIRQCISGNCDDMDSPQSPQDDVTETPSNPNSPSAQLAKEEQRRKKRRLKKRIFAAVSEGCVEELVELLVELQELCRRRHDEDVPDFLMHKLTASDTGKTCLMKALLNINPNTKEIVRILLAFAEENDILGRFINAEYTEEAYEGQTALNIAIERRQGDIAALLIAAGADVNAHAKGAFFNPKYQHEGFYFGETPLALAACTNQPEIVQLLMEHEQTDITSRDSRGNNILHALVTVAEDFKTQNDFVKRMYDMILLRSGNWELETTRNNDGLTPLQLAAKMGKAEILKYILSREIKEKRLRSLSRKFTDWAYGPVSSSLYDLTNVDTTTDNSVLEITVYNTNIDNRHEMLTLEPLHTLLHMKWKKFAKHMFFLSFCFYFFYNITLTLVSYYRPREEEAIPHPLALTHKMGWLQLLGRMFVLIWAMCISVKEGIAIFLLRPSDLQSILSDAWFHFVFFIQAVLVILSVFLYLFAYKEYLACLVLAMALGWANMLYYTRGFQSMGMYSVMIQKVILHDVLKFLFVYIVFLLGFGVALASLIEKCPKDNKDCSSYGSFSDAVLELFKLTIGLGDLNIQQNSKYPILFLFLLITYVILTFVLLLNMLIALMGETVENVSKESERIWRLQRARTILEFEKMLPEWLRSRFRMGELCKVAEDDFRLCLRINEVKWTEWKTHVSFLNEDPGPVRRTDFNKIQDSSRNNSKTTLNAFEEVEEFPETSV
Assay: 45Calcium uptake assay: inhibition of 2-APB induced cellular uptake of radioactive calcium in human TRPV3 expressing CHO cells
Type: cell-based
Settings: 2-APB 500 μM; for inhibition at 1 µM: 1.0 μM test compound, read-out: Percentage inhibition at 1.0 μM; for inhibition at 10 µM: 10.0 μM test compound, read-out: Percentage inhibition at 10.0 μM
Description: The illustrative examples of the present invention are screened for TRPV3 activity according to a modified procedure described in (a) Tóth, A. et al. Life Sciences 2003, 73, 487-498. (b) McNamara C, R. et al. Proc. Natl. Acad. Sci. U.S.A., 2007, 104, 13525-13530. The screening of the compounds can be carried out by other methods and procedures known to persons skilled in the art.
Screening for TRPV3 Antagonist Using the ^45Calcium Uptake Assay
The inhibition of TRPV3 receptor activation was followed as inhibition of 2-aminoethxydiphenylborate (2-APB) induced cellular uptake of radioactive calcium. Test compounds were dissolved in dimethyl sulfoxide (DMSO) to prepare 20 mM stock solution and then diluted using plain medium with DMEM/F-12 containing 1.8 mM CaCl2 to get desired concentration. Final concentration of DMSO in the reaction was 0.5% (v/v). Human TRPV3 expressing CHO cells were grown in DMEM/F-12 medium with 10% FBS, 1% penicillin-streptomycin solution, 400 μg/mL of G-418. Cells were seeded 24 h prior to the assay in 96 well plates so as to get ˜50,000 cells per well on the day of experiment. Cells were treated with test compounds for 10 minutes followed by addition of 2-APB at a final concentration of 500 μM and 5 μCi/mL ^45Ca^+2 for 4 minutes. Cells were washed and lysed using buffer containing 1% Triton X-100, 0.1% deoxycholate and 0.1% SDS. Radioactivity in the lysate was measured in Packardt Top count after addition of liquid scintillant. Concentration response curves were plotted as a % of maximal response obtained in the absence of test antagonist. IC50 value was calculated from concentration response curve by nonlinear regression analysis using GraphPad PRISM software.
Percentage inhibition at concentrations of 1.0 μM and 10.0 μM are given in the table along with IC50 (nM) values for selected examples.

Compound | inhibition at 1 µM [%] | inhibition at 10 µM [%] | IC50 [nM]
COc1cccc(/C=C/c2oc3ccccc3c(=O)c2-c2ccc(C#N)cc2)c1OCC(C)(C)C [Example 7, 4-{2-[(E)-2-[2-(2,2-Dimethylpropoxy)-3-methoxyphenyl]-1-ethenyl]-4-oxo-4H-3-chromenyl}benzonitrile] | 89.8 | 93.2 | 50 to 150
COc1cccc(/C=C/c2oc3ccc(F)cc3c(=O)c2-c2ccc(C#N)cc2)c1OCC(C)C [Example 19, 4-{6-Fluoro-2-[(E)-2-(2-isobutoxy-3-methoxyphenyl)-1-ethenyl]-4-oxo-4H-3-chromenyl}benzonitrile] | 70.2 | 87.8 | < 50
COc1cccc(/C=C/c2oc3cc(F)ccc3c(=O)c2-c2ccc(C#N)cc2)c1OCC(C)C [Example 13, 4-{7-Fluoro-2-[(E)-2-(2-isobutoxy-3-methoxyphenyl)-1-ethenyl]-4-oxo-4H-3-chromenyl}benzonitrile] | 92.9 | 96.7 | 50 to 150
N#Cc1ccc(-c2c(/C=C/c3cccc(OC(F)F)c3OCC3CC3)oc3ccccc3c2=O)cc1 [Example 4, 4-(2-{(E)-2-[2-(Cyclopropylomethoxy)-3-(difluoromethoxy)phenyl]vinyl}-4-oxo-4H-3-chromenyl}benzonitrile] | 92.9 | 94.8 | 150 to 1000
COc1cccc(/C=C/c2oc3ccc(F)cc3c(=O)c2-c2ccc(C#N)cc2)c1OC1CCCC1 [Example 16, 4-{2-[(E)-2-(2-Cyclopentyloxy-3-methoxyphenyl)-1-ethenyl]-6-fluoro-4-oxo-4H-3-chromenyl}benzonitrile] | 59.4 | 74.4 | –
COc1cccc(/C=C/c2oc3ccc(Cl)cc3c(=O)c2-c2ccc(C#N)cc2)c1OCC1CC1 [Example 21, 4-{6-Chloro-2-[(E)-2-(2-cyclopropylmethoxy-3-methoxyphenyl)-1-ethenyl]-4-oxo-4H-3-chromenyl}benzonitrile] | 76.4 | 87.7 | 150 to 1000
COc1cccc(/C=C/c2oc3ccc(F)cc3c(=O)c2-c2ccc(C#N)cc2)c1OCCC(C)C [Example 18, 4-{6-Fluoro-2-[(E)-2-(2-isopentyloxy-3-methoxyphenyl)-1-ethenyl]-4-oxo-4H-3-chromenyl}benzonitrile] | 55.2 | 71.7 | –
COc1cccc(/C=C/c2oc3ccccc3c(=O)c2-c2ccc(C#N)cc2)c1O [Example 6, 4-{2-[(E)-2-(2-Hydroxy-3-methoxyphenyl)-1-ethenyl]-4-oxo-4H-3-chromenyl}-benzonitrile] | 32.1 | 83.9 | –
COc1cccc(/C=C/c2oc3cc(F)ccc3c(=O)c2-c2ccc(C#N)cc2)c1OCC(C)(C)C [Example 12, 4-{7-Fluoro-2-[(E)-2-(3-methoxy-2-neopentyloxyphenyl)-1-ethenyl]-4-oxo-4H-3-chromenyl}benzonitrile] | 82.2 | 91.2 | < 50
COc1cccc(/C=C/c2oc3cc(F)ccc3c(=O)c2-c2ccc(C#N)cc2)c1OC1CCCC1 [Example 11, 4-{2-[(E)-2-(2-Cyclopentyloxy-3-methoxyphenyl)-1-ethenyl]-7-fluoro-4-oxo-4H-3-chromenyl}benzonitrile] | 84.6 | 92.6 | 50 to 150
COc1cccc(/C=C/c2oc3ccc(F)cc3c(=O)c2-c2ccc(C#N)cc2)c1OCC(C)(C)C [Example 20] | 74.3 | 78.5 | < 50
COc1cccc(/C=C/c2oc3cc(F)c(F)cc3c(=O)c2-c2ccc(C#N)cc2)c1OC1CCCC1 [Example 23, 4-{2-[(E)-2-[2-Cyclopentyloxy-3-methoxyphenyl)-1-ethenyl]-6,7-difluoro-4-oxo-4H-3-chromenyl}benzonitrile] | 75.8 | 86.7 | < 50
